Reference: ChEMBL document CHEMBL3227945, “Synthesis of all the stereoisomers of statine (4-amino-3-hydroxy-6-methylheptanoic acid). Inhibition of pepsin activity by N-carbobenzoxy-L-valyl-L-valyl-statine derived from the four stereoisomers” (J Med Chem, 1979)
Converted amounts (≈) assume the structure as drawn.

Experiments:
Sus scrofa [1] = organism: Sus scrofa; experiment: Inhibition of porcine pepsin activity assessed as hydrolysis of N-Cbz-L-Pheylalanyl-L-Tyrosine substrate
Sus scrofa [2] = organism: Sus scrofa; experiment: Inhibition of porcine pepsin activity assessed as hydrolysis of 0.5% hemoglobin solution substrate after 1 hr

Row | Compound | ID50 (Sus scrofa [1]) | ID50 (Sus scrofa [2])
1 | CC(C)C[C@H](NC(=O)[C@@H](NC(=O)[C@@H](NC(=O)OCc1ccccc1)C(C)C)C(C)C)[C@H](O)CC(=O)O | 12 µg/mL (≈ 23.6 µM) | 21 µg/mL (≈ 41.4 µM)
2 | CC(C)C[C@@H](NC(=O)[C@@H](NC(=O)[C@@H](NC(=O)OCc1ccccc1)C(C)C)C(C)C)[C@H](O)CC(=O)O | 42 µg/mL (≈ 82.7 µM) | 18 µg/mL (≈ 35.5 µM)
3 | CC(C)C[C@H](NC(=O)[C@@H](NC(=O)[C@@H](NC(=O)OCc1ccccc1)C(C)C)C(C)C)[C@@H](O)CC(=O)O | 1 µg/mL (≈ 1.97 µM) | 0.1 µg/mL (≈ 0.197 µM)
4 | CC(C)CC(=O)N[C@H](C(=O)N[C@H](C(=O)N[C@@H](CC(C)C)[C@@H](O)CC(=O)N[C@@H](C)C(=O)N[C@@H](CC(C)C)[C@@H](O)CC(=O)O)C(C)C)C(C)C | 2 µg/mL (≈ 2.92 µM) | 0.0052 µg/mL (≈ 0.00758 µM)
5 | CC(C)C[C@@H](NC(=O)[C@@H](NC(=O)[C@@H](NC(=O)OCc1ccccc1)C(C)C)C(C)C)[C@@H](O)CC(=O)O | 219 µg/mL (≈ 431 µM) | 224 µg/mL (≈ 441 µM)
